Results on seven compounds are retold here after US10730885B1, “Coumarin derivatives” (KING SAUD UNIVERSITY, priority 2019, dated 2020).

Converted amounts (≈) assume the structure as drawn. Like-named read-outs stand apart in the source and are kept apart here.

Broadly, the IC50 is the concentration that gives 50% inhibition. Low values mean inhibition by little substance, high ones a need for much substance. As usually defined, the melting point is the temperature, or range, at which the solid turns liquid.

The subject of data set [1] is trypsin. The data set is described as follows: Proteinase inhibitory activity (trypsin/casein). The class given is biochemical. The note with it: for % Inhibition of proteinase activity: 250 μg/ml, mean ± SD (n = 3). As to the method: For proteinase inhibitory activity, the reaction mixture (2 ml) contained 0.06 mg trypsin, 20 mM Tris HCl buffer (pH 7.4) and 1 ml test sample (250 μg/ml for each compound). The mixture was incubated for 5 min and then 1 ml of 0.8% (w/v) casein was added. The mixture was incubated for an additional 20 min. 1 ml of 10% perchloric acid was added to arrest the reaction. The cloudy suspension was centrifuged, and the absorbance of the supernatant was read at 280 nm. Reference standard compound aspirin was used as the positive control for this assay. The experiment was performed in triplicate. Percentage inhibition of […] was calculated by using the following formula:
[formula] where Acontrol is the absorbance of the control reaction and Atest is the absorbance of the control reaction with sample.

The nature of data set [2]: DPPH microplate radical scavenging antioxidant assay. The format is biochemical. The note with it: for IC50: DPPH, 30 min, mean ± SD (n = 3). As to the method: The antioxidant activity of the synthesized compounds was measured in terms of hydrogen-donating or radical scavenging ability using the DPPH microplate-based method. Absorbance measurement was obtained using Microplate/cuvette reader (Spectramax M5, Molecular Devices, California, USA). Reference standard compound ascorbic acid was used as the positive control for this assay at concentrations ranging from 1.563 to 200 μg/mL. Test samples were prepared at a starting concentration of 200 μg/mL after mixing with 100 μl of 0.2 mM DPPH methanolic solution. A series of concentrations were tested for the samples in order to determine the 50% inhibitory concentration (IC50). Samples were incubated with DPPH in the dark for 30 min at room temperature (25° C.). The DPPH solution in methanol was prepared daily and stored in a flask covered with aluminum foil. DPPH radicals have an absorption maximum (λmax) at 515 nm, in which the absorbance values were measured and converted into percentage of antioxidant activity.
Methanolic DPPH solution without antioxidant was applied as control and background control was samples in methanol only. IC50 was determined using Graphpad Prism 7 (Graphpad Software Inc. CA, USA). The percentage inhibition was calculated by using the formula:
The assay was carried out in triplicate and performed as much as possible in an area protected against light. The data points are presented as the mean±standard deviation (SD) (n=3).

Data set [3] relates to Candida albicans NRRL Y-477. Description: Agar well diffusion, primary antimicrobial screening. The format is cell-based. The note with it: for zone of inhibition at 10000 µg/mL: Candida albicans, NRRLY477, C. albicans NRRL Y-477, 100 μL of 10 mg/ml in DMSO, 24 h, read-out: Inhibition Diameter Zone CA; for antifungal activity compared with reference drug: C. albicans. The source says:
(§1) The newly synthesized compounds were individually tested for their in vitro antimicrobial activity against the standard bacteria strains of American Type Culture Collection (ATCC), namely, Staphylococcus aureus ATCC 29213, Bacillus subtilis ATCC 6633, Bacillus megaterium ATCC 9885 (Gram-positive), Escherichia coli ATCC 2592 and Pseudomonas aeruginosa ATCC 27953 (Gram-negative). In addition, they were microbiologically tested against the locally isolated Saccharomyces cerevisiae (yeast) and the standard strain of Agricultural Research Service Culture Collection (NRRL) of the yeast like pathogenic fungus Candida albicans NRRL Y-477. The primary screening was carried out using the agar well diffusion method using nutrient agar (NA) medium and Sabourand dextrose agar (SDA) medium for pathological tested bacteria and yeast, respectively.
(§2) Antimicrobial tests were carried out by the agar well diffusion method using 100 μL of suspension containing 1×10^8 CFU/mL of pathological tested bacteria and 1×10^6 CFU/ml of yeast spread on NA and SDA, respectively. After the media was cooled and solidified, wells (10 mm in diameter) were made in the solidified agar and loaded with 100 μL of tested compound solution prepared by dissolving 10 mg of the chemical compound in one ml of dimethyl sulfoxide (DMSO). The inculcated plates were then incubated for 24 h at 37° C. for bacteria and yeast. Negative controls were prepared using DMSO employed for dissolving the tested compound. Ciprofloxacin (10 mg/ml) and ketoconazole (10 mg/ml) were used as standard for antibacterial and antifungal activity, respectively. After incubation time, antimicrobial activity was evaluated by measuring the zone of inhibition against the test organisms and compared with that of the standard. Antimicrobial activities were expressed as inhibition diameter zones in millimeters (mm). The experiment was carried out in triplicate and the average zone of inhibition was calculated.

Data set [4] relates to Bacillus megaterium ATCC 9885. The description is as above. The class given is cell-based. To be noted: for zone of inhibition at 10000 µg/mL: Priestia megaterium, ATCC9885, B. megaterium ATCC 9885, 100 μL of 10 mg/ml in DMSO, 24 h, read-out: Inhibition Diameter Zone BM; for antibacterial activity compared with ciprofloxacin: B. megaterium.
From the text: as §1, §2

Data set [5] concerns Bacillus subtilis ATCC 6633. Described as above. The format is cell-based. To be noted: for zone of inhibition at 10000 µg/mL: Bacillus subtilis, ATCC6633, B. subtilis ATCC 6633, 100 μL of 10 mg/ml in DMSO, 24 h, read-out: Inhibition Diameter Zone BS; for antibacterial activity compared with reference drug: B. subtilis.
From the text: as §1, §2

For data set [6], the system named is Saccharomyces cerevisiae (local isolate). The data set is described as above. The format is cell-based. To be noted: for zone of inhibition at 10000 µg/mL: Saccharomyces cerevisiae, 24 h, read-out: Inhibition Diameter Zone SC; for antimicrobial activity compared with ketoconazole: S. cerevisiae.
From the text: as §1, §2

Data set [7] has as its system Escherichia coli ATCC 2592. The description is as above. The class given is cell-based. To be noted: for zone of inhibition at 10000 µg/mL: Escherichia coli, ATCC2592, E. coli ATCC 2592, 100 μL of 10 mg/ml in DMSO, 24 h, read-out: Inhibition Diameter Zone EC; for antibacterial activity compared with ciprofloxacin: E. coli.
From the text: as §1, §2

The subject of data set [8] is Pseudomonas aeruginosa ATCC 27953. Described as above. The format is cell-based. To be noted: for zone of inhibition at 10000 µg/mL: Pseudomonas aeruginosa, ATCC27953, P. aeruginosa ATCC 27953, 100 μL of 10 mg/ml in DMSO, 24 h, read-out: Inhibition Diameter Zone PA.
From the text: as §1, §2

Data set [9] relates to tested microorganisms. The data set is described as follows: Agar well diffusion, summary over the tested microorganisms. The format is cell-based. To be noted: for antimicrobial activity compared with standard antimicrobials (ciprofloxacin and ketoconazole): against one or more microorganisms.
From the text: as §1, §2
For orientation: A growth-free zone around the sample is the usual read-out of agar diffusion tests.

Data set [10] relates to Staphylococcus aureus ATCC 29213. Description: Agar well diffusion, primary antimicrobial screening. The class given is cell-based. To be noted: for antibacterial activity compared with ciprofloxacin: S. aureus.
From the text: as §1, §2

Where [11] appears, read: S. cerevisiae local isolate, 100 μL of 10 mg/ml in DMSO.

Compound `Cc1ccc2oc(=O)c3c(c2c1)OC(N=CN(C)C)=C(C#N)C3c1ccc([N+](=O)[O-])cc1` (racemic) [Compound 7a, (±)-N′-(3-cyano-9-methyl-4-(4-nitrophenyl)-5-oxo-4H,5H-pyrano[3,2-c]chromen-2-yl)-N,N-dimethylformimidamide] registered a melting point of 279 to 281 °C. Besides, the “% Inhibition of proteinase activity” value in data set [1] came to 31.99 ± 2.45%. The IC50 result in [2] is “— ((—): inactive (IC50 > 200 μg/mL))”. Besides, the zone of inhibition at 10000 µg/mL in [3] was below 15 mm. The zone of inhibition at 10000 µg/mL in data set [4] is below 15 mm. Also, the zone of inhibition at 10000 µg/mL in data set [5] is below 15 mm. Also, the zone of inhibition at 10000 µg/mL in [6] was below 15 mm. Besides, the zone of inhibition at 10000 µg/mL in data set [7] is below 15 mm. In data set [8], the zone of inhibition at 10000 µg/mL is below 15 mm.

`O=c1oc2ccc(Cl)cc2c(O)c1S(=O)(=O)Nc1ccc(S(=O)(=O)Nc2ncccn2)cc1` [Compound 10c, 6-Chloro-4-hydroxy-2-oxo-N-(4-(N-(pyrimidin-2-yl)sulfamoyl)phenyl)-2H-chromene-3-sulfonamide] had a melting point of 230 to 232 °C. Further, in data set [9], the “antimicrobial activity compared with standard antimicrobials (ciprofloxacin and ketoconazole)” value was “equal to or higher than the standard antimicrobials”. Moreover, in [2], the IC50 was found to be 120.12 ± 4.629 mg/L (≈ 236 µM). In addition, the “antibacterial activity compared with ciprofloxacin” value in [4] is reported as “comparable to ciprofloxacin”. The “antibacterial activity compared with reference drug” value in data set [5] was “higher than the reference drug”. Also, the “antimicrobial activity compared with ketoconazole” value in data set [6] is reported as “higher than that of the corresponding control drug”. In addition, the zone of inhibition at 10000 µg/mL in data set [6] (setting [11]) was determined as 31 mm. Further, the “antibacterial activity compared with ciprofloxacin” value in [7] is “comparable antibacterial potential”. The “antibacterial activity compared with ciprofloxacin” value in data set [10] is recorded as “higher than the control ciprofloxacin”.

The compound `Cc1ccc2oc(=O)c(S(=O)(=O)Nc3ccc(S(=O)(=O)Nc4ncccn4)cc3)c(O)c2c1` [Compound 10d, 4-hydroxy-6-methyl-2-oxo-N-(4-(N-(pyrimidin-2-yl)sulfamoyl)phenyl)-2H-chromene-3-sulfonamide] displayed a melting point of 207 to 209 °C. In data set [9], the “antimicrobial spectrum” value is “broad-spectrum activity against all of the tested microorganisms”; the “antimicrobial activity compared with standard antimicrobials (ciprofloxacin and ketoconazole)” value was “equal to or higher than the standard antimicrobials”. Moreover, the “% Inhibition of proteinase activity” value in data set [1] was 36.84 ± 4.87%. In data set [2], this compound came in with an IC50 of 112.19 ± 4.391 mg/L (≈ 230 µM). The “antifungal activity compared with reference drug” value in data set [3] was “higher antifungal activity”. Besides, the “antibacterial activity compared with ciprofloxacin” value in data set [4] is recorded as “comparable to ciprofloxacin”. Moreover, the “antibacterial activity compared with reference drug” value in data set [5] is on record as “higher than the reference drug”. Besides, the “antimicrobial activity compared with ketoconazole” value in data set [6] was “higher than that of the corresponding control drug”. Besides, the zone of inhibition at 10000 µg/mL in data set [6] (setting [11]) is 32 mm. The “antibacterial activity compared with ciprofloxacin” value in [10] is “higher than the control ciprofloxacin”.

`Cc1ccc2oc(=O)c(S(=O)(=O)Nc3ccc(O)cc3)c(O)c2c1` [Compound 11d, 4-Hydroxy-N-(4-hydroxyphenyl)-6-methyl-2-oxo-2H-chromene-3-sulfonamide] gave a melting point of 253 to 254 °C. For the same compound, in [9], the “antimicrobial activity compared with standard antimicrobials (ciprofloxacin and ketoconazole)” value is given as “equal to or higher than the standard antimicrobials”. Besides, the “% Inhibition of proteinase activity” value in data set [1] was determined as 20.15 ± 7.31%. Moreover, the IC50 in data set [2] was found to be 4.30 ± 0.531 mg/L (≈ 12.4 µM). In data set [2] (overview), the “antioxidant activity” value is recorded as “particularly high antioxidant activity”. Besides, the “antifungal activity compared with reference drug” value in data set [3] was “higher antifungal activity”. Moreover, the “antibacterial activity compared with reference drug” value in data set [5] is on record as “comparable antibacterial activities to the standard”. In [6], the “antimicrobial activity compared with ketoconazole” value was “higher than that of the corresponding control drug”. Further, the zone of inhibition at 10000 µg/mL in data set [6] (setting [11]) was determined as 32 mm. The “antibacterial activity compared with ciprofloxacin” value in data set [7] is reported as “higher antibacterial activity than ciprofloxacin”. The “antibacterial activity compared with standard” value in data set [8] (P. aeruginosa) was “higher than that of the standard drugs”. In addition, the “antibacterial activity compared with ciprofloxacin” value in [10] is reported as “higher than the control ciprofloxacin”.

In turn, `CC(=O)c1ccc(NS(=O)(=O)c2c(O)c3cc(C)ccc3oc2=O)cc1` [Compound 11f, N-(4-acetylphenyl)-4-hydroxy-6-methyl-2-oxo-2H-chromene-3-sulfonamide] returned a melting point of 231 to 232 °C. In data set [1], the “% Inhibition of proteinase activity” value is listed as 2.0 ± 1.4%. Moreover, in [2], the half-inhibitory concentration (IC50) came out at 35.36 ± 3.265 mg/L (≈ 94.7 µM). In data set [3], the zone of inhibition at 10000 µg/mL was below 15 mm. Besides, the zone of inhibition at 10000 µg/mL in data set [6] (setting [11]) was below 15 mm. In data set [7], the zone of inhibition at 10000 µg/mL is below 15 mm. Also, the zone of inhibition at 10000 µg/mL in data set [8] is below 15 mm.

On to `O=C(/C=C/c1ccc([N+](=O)[O-])cc1)c1ccc(NS(=O)(=O)c2c(O)c3cc(Cl)ccc3oc2=O)cc1` [Compound 12a, (E)-6-chloro-4-hydroxy-N-(4-(3-(4-nitrophenyl)acryloyl)phenyl)-2-oxo-2H-chromene-3-sulfonamide], for which the melting point fell in the range of 205 to 207 °C. Further, in data set [1], the “in vitro anti-proteinase activity compared with aspirin” value was “more potent” and the “% Inhibition of proteinase activity” value is 62.14±4.87%. Besides, in data set [2], the 50% inhibitory concentration (IC50) entry is “— ((—): inactive (IC50 > 200 μg/mL))”. Besides, the zone of inhibition at 10000 µg/mL in [3] is below 15 mm. Besides, in [6] (setting [11]), the zone of inhibition at 10000 µg/mL is below 15 mm. For the same compound, in [7], the zone of inhibition at 10000 µg/mL was below 15 mm. Also, in data set [8], the zone of inhibition at 10000 µg/mL was below 15 mm.

`CC(=O)N1CCN(c2ccc(OCC3COC(Cn4ccnc4)(c4ccc(Cl)cc4Cl)O3)cc2)CC1` (stereo not shown) [Ketoconazole, ketoconazole, reference compound]: the zone of inhibition at 10000 µg/mL in data set [4] is below 15 mm; in data set [5] it was below 15 mm; in [7], below 15 mm; in [8] it was below 15 mm; in data set [10] (Staphylococcus aureus, ATCC29213, S. aureus ATCC 29213, 100 μL of 10 mg/ml in DMSO, 24 h, read-out: Inhibition Diameter Zone SA), below 15 mm.
